From ChEMBL document CHEMBL3603734, “Design and biological evaluation of novel quinolone-based metronidazole derivatives as potent Cu(2+) mediated DNA-targeting antibacterial agents” (Bioorg Med Chem Lett, 2015) come the findings set out here.

≈ marks a conversion by molar mass, not a printed value.

Data set [1] concerns Bacillus spizizenii. Description: Antibacterial activity against Bacillus subtilis ATCC 6633 after 24 hrs by microbroth dilution method. In kind it is functional. As to conditions: ATCC 6633, 24 h. In general terms: In broth dilution the organism is exposed to a series of concentrations in liquid medium.
In data set [2] the test system is Bacillus. The data set is described as follows: Antibacterial activity against Bacillus proteus ATCC 13315 after 24 hrs by microbroth dilution method. The class given is functional. Conditions: ATCC 13315, 24 h.
Data set [3] can be described thus: Ionization constant, pKa of the compound by UV spectroscopic analysis. In kind it is physicochemical.
Data set [4] deals with Escherichia coli. Description: Antibacterial activity against Escherichia coli JM109 after 24 hrs by microbroth dilution method. Conditions: JM109, 24 h. The class given is functional.
The test system of data set [5] is Micrococcus luteus. The data set is described as follows: Antibacterial activity against Micrococcus luteus ATCC 4698 after 24 hrs by microbroth dilution method. In kind it is functional. Conditions: NCTC 2665, 24 h.
Data set [6] deals with Pseudomonas aeruginosa. Description: Antibacterial activity against Pseudomonas aeruginosa ATCC 27853 after 24 hrs by microbroth dilution method. The class given is functional. As to conditions: ATCC 27853, 24 h.
In data set [7] the test system is Candida albicans. Description: Antifungal activity against Candida albicans ATCC 10231 after 24 hrs by microbroth dilution method. In kind it is functional. Conditions: ATCC 10231, 24 h.
Data set [8] relates to Pichia norvegensis. The data set is described as follows: Antifungal activity against Candida mycoderma ATCC 9888 after 24 hrs by microbroth dilution method. In kind it is functional. As to conditions: ATCC 9888, 24 h.
Data set [9] has as its system Staphylococcus aureus. Description: Antibacterial activity against methicillin-resistant Staphylococcus aureus N315 after 24 hrs by microbroth dilution method. In kind it is functional. As to conditions: N315, 24 h.
Data set [10] relates to Cyberlindnera jadinii. The data set is described as follows: Antifungal activity against Candida utilis ATCC 9950 after 24 hrs by microbroth dilution method. The class given is functional. As to conditions: Williopsis jadinii, ATCC 9950, 24 h.
The test system of data set [11] is Aspergillus flavus. Description: Antifungal activity against Aspergillus flavus ATCC 204304 after 24 hrs by microbroth dilution method. The class given is functional. Conditions: ATCC 204304, 24 h.
Data set [12] has as its system Staphylococcus aureus. Description: Antibacterial activity against Staphylococcus aureus ATCC 25923 after 24 hrs by microbroth dilution method. The class given is functional. Conditions: ATCC 25923, 24 h.
Data set [13] deals with Salmonella enterica. The data set is described as follows: Antibacterial activity against Salmonella enterica ATCC 14028 after 24 hrs by microbroth dilution method. The class given is functional. As to conditions: ATCC 14028, 24 h.
Data set [14] relates to Saccharomyces cerevisiae. Description: Antifungal activity against Saccharomyces cerevisiae ATCC 9763 after 24 hrs by microbroth dilution method. In kind it is functional. As to conditions: ATCC 9763, 24 h.

One may read the MIC as the lowest concentration found to suppress growth. What is called pKa is the pH at which an ionisable group is half protonated. Read a high pKa as a weaker acid or stronger base.

Consider `Cc1ncc([N+](=O)[O-])n1CC(O)CN1CCN(c2cc3c(cc2F)c(=O)c(C(=O)O)cn3C2CC2)CC1` (stereo not drawn), for which the MIC in data set [1] amounted to 4 µg/mL (≈ 7.77 µM); in data set [2], 4 µg/mL (≈ 7.77 µM); in [4], 16 µg/mL (≈ 31.1 µM); in data set [5], 8 µg/mL (≈ 15.5 µM); in data set [6] it was 0.5 µg/mL (≈ 0.972 µM); in data set [7], 128 µg/mL (≈ 249 µM). Further, the MIC is 64 µg/mL (≈ 124 µM) in data set [8]; 2 µg/mL (≈ 3.89 µM) in [9]; 32 µg/mL (≈ 62.2 µM) in data set [10]; 16 µg/mL (≈ 31.1 µM) in [11]; 16 µg/mL (≈ 31.1 µM) in data set [12]; 4 µg/mL (≈ 7.77 µM) in data set [13]. The same compound came in with an MIC in data set [14] of 32 µg/mL (≈ 62.2 µM). Further, the pKa in data set [3] was 6.67.

With `Cc1nc(N2CCCC2)c([N+](=O)[O-])n1CC(O)CNC1CCN(c2c(F)cc3c(=O)c(C(=O)O)cn(C4CC4)c3c2Cl)C1` (stereo not drawn), the MIC in data set [1] turned out to be 1 µg/mL (≈ 1.62 µM); in data set [2], 0.5 µg/mL (≈ 0.809 µM); in [4], 8 µg/mL (≈ 12.9 µM); in data set [5] it was 4 µg/mL (≈ 6.47 µM); in [6] it was 0.5 µg/mL (≈ 0.809 µM); in [7] it was 2 µg/mL (≈ 3.24 µM). Besides, the MIC stood at 4 µg/mL (≈ 6.47 µM) in [8]; 1 µg/mL (≈ 1.62 µM) in data set [9]; 1 µg/mL (≈ 1.62 µM) in data set [10]; 2 µg/mL (≈ 3.24 µM) in data set [11]; 1 µg/mL (≈ 1.62 µM) in [12]; 8 µg/mL (≈ 12.9 µM) in [13]. The compound also gave an MIC in data set [14] of 4 µg/mL (≈ 6.47 µM). The compound also registered a pKa in data set [3] of 6.54.
